For 106 compounds, Kd results are on record in PubChem BioAssay AID1552 (Sanford-Burnham Center for Chemical Genomics, 2009).

By Kd is commonly meant a measure of binding affinity in units of concentration.

Active and inactive are the calls of the source. How the calls were made is not given here. Where only a bound is given, the exact number is not on record here.

In this assay the target is Ubiquitin-conjugating enzyme E2 N (Homo sapiens) (UniProt P61088). Put plainly: NMR detection of UBE2N ligand binding – biophysical, purified protein (AID 1552). The following applies: NMR binding to purified UBE2N.
Ubiquitin-conjugating enzyme E2 N (Homo sapiens), sequence (P61088 whole entry, looked up): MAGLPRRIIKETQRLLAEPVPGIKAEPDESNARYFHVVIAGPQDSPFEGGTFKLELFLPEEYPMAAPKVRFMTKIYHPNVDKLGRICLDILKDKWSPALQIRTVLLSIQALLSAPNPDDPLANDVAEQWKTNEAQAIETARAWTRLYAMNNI
For `Cc1n[nH]c(=O)nc1N1CCN(c2ccccc2)CC1`, the Kd is > 4 mM (inactive). `O=C(O)c1ccc(CSc2ncn[nH]2)cc1`: the Kd was > 4 mM (inactive).

For `CCOC(=O)c1c[nH]c2c(F)cccc2c1=O`, the Kd is > 4 mM (inactive). `CN(C)c1nc(N)nc(-c2nc3ccccc3s2)n1`: the Kd is > 4 mM (inactive).

In the case of `CNc1nnc(CSc2nc(C)cc(C)n2)s1`, the Kd was > 4 mM (inactive).

For `Cc1occc1C(=O)Nc1nnc(C(F)(F)F)s1`, the Kd is > 4 mM (inactive). On to `NCC(=O)c1ccccc1`, for which the Kd was > 4 mM (inactive). Take `NC(=O)c1cc2c(n(-c3ccccc3)c1=O)CCCC2=O`: the Kd is > 4 mM (inactive). In the case of `CN1C(=O)C(Cc2c[nH]c3ccccc23)C(=O)N(C)C1=O`, the Kd is > 4 mM (inactive). Take `CC(=O)N1CC2(C)CN(C(C)=O)CC(C)(C1)C2O` (stereo unspecified): the Kd is > 4 mM (inactive). On to `O=c1cnnc(N2CCCCC2)[nH]1`, for which the Kd was > 4 mM (inactive). For the compound `COc1ccc(N2C(=O)CCC2=O)c(OC)c1`, the Kd was > 4 mM (inactive).

As to `O=C(OCc1c(Cl)cccc1Cl)c1cnccn1`, the Kd was > 4 mM (inactive). With `CCc1cc(=O)[nH]c(SCC(=O)NCCOC)n1`, the Kd was > 4 mM (inactive).

`Cc1cc(=O)n2ccc(CN3CCOCC3)c(O)c2n1`: the Kd was > 4 mM (inactive). For the compound `COc1ccc(-c2coc3c(O)c(OC)ccc3c2=O)cc1`, the Kd was > 4 mM (inactive). As to `OCc1ccc2ncccc2c1`, the Kd was > 4 mM (inactive). For the compound `CC1(C)C(=O)[C@@H]2C[C@@]3(O)C4=CC(=O)O[C@@H](c5ccoc5)[C@]4(C)CCC3C(C)(C2=O)[C@H]1CC(=O)O` (stereo partly specified), the Kd is > 4 mM (inactive).

With `COc1ccc(/C=C2\SC(N)=NC2=O)cc1`, the Kd was > 4 mM (inactive). With `COC(=O)[C@]1(C)CC[C@]2(C)CC[C@]3(C)C4=CC=C5C(=CC(=O)C(O)=C5C)[C@]4(C)CC[C@@]3(C)[C@@H]2C1` the figure was > 4 mM (inactive); with `C[C@]12CCC(=O)C=C1CCC1C2C(=O)C[C@@]2(C)C1CC[C@]2(O)C(=O)CO` (stereo partly specified), > 4 mM (inactive); with `CN(Cc1nc2ccccc2n1C)C(=O)c1cccs1`, > 4 mM (inactive). Under `NC(=O)c1cccc2c(=O)oc3ccccc3c12` stands > 4 mM (inactive). Turning to `C=C1C2CC[C@@]3(C)[C@H](c4ccoc4)OC(=O)C[C@]13O[C@H]1CC(O)C(C)(C)C(CC(=O)OC)[C@@]21C` (stereo partly specified), the Kd is > 4 mM (inactive). Take `COc1cc2occc2c2oc(=O)ccc12`: the Kd was > 4 mM (inactive). As to `Cc1oc(-c2ccccc2)cc1CO`, the Kd was > 4 mM (inactive).

Turning to `C=C(C)C1CC=C(CO)CC1` (stereo unspecified), the Kd was > 4 mM (inactive). Take `c1cncc(Nc2nc(-c3ccncc3)cs2)c1`: the Kd was > 4 mM (inactive). Under `COc1ccc(N2CC(=O)NC2=O)cc1` stands > 4 mM (inactive). On to `O=C(Nc1ccc(-c2nnco2)cc1)c1ccccc1`, for which the Kd was > 4 mM (inactive). Take `NCCC(=O)N[C@@H](Cc1cnc[nH]1)C(=O)O`: the Kd was > 4 mM (inactive). Turning to `O=C(O)c1cn(-c2ccccc2)nc1-c1ccncc1`, the Kd was > 4 mM (inactive). In the case of `O=C(O)CCn1cncn1`, the Kd is > 4 mM (inactive). As for `Cc1cc(SCC(=O)Nc2nccs2)nc(=O)[nH]1`, the Kd was > 4 mM (inactive). Under `Nc1cc(C(F)(F)F)ccc1N1CCOCC1` stands > 4 mM (inactive). For the compound `O=C(c1cc(Cl)cc(Cl)c1)N1CCOCC1`, the Kd is > 4 mM (inactive). `O=C(O)C1CCN(c2ccc(C(F)(F)F)cn2)CC1`: the Kd was > 4 mM (inactive). With `O=C(O)Cn1cc(C(=O)c2cccs2)c2ccccc21` the figure was > 4 mM (inactive); with `O=C1NCCCC1C(=O)N/N=C/c1ccccc1` (stereo unspecified), > 4 mM (inactive). Turning to `S=C(NC1CC1)NN1CCOCC1`, the Kd is > 4 mM (inactive). Take `OCc1ccc(-n2ccnc2)cc1`: the Kd is > 4 mM (inactive). With `Cc1cc(N2C(=O)CCC2=O)n(-c2ccccc2)n1` the figure was > 4 mM (inactive); with `O=C1CSC(=Nc2cc(Cl)ccc2Cl)N1`, > 4 mM (inactive). As to `COc1ncnc(N)c1[N+](=O)[O-]`, the Kd was > 4 mM (inactive). `C[C@H]1CCCC(=O)CCC/C=C/c2cc(O)cc(O)c2C(=O)O1`: the Kd is > 4 mM (inactive).

Regarding `CC1=NN(c2ccc(C)cc2)C(=O)C1`, the Kd is > 4 mM (inactive). Take `CC(=O)NCC1(c2ccccc2)CCOCC1`: the Kd was > 4 mM (inactive). For the compound `C(=N\n1cnnc1)/c1cccs1`, the Kd is > 4 mM (inactive). As to `COc1cc(N)ccc1NC(=O)c1cccs1`, the Kd was > 4 mM (inactive). Under `Cc1cccc(CO)n1` stands > 4 mM (inactive); under `COc1ccc(S(=O)(=O)Nc2ccccn2)c(C)c1C`, > 4 mM (inactive); under `Cn1cnc2c1c(=O)[nH]c(=O)n2C`, > 4 mM (inactive).

For `Cn1c(C(=O)O)ccc1S(N)(=O)=O`, the Kd is > 4 mM (inactive). Regarding `Nc1cc(=O)[nH]c(SCC(=O)Nc2nccs2)n1`, the Kd is > 4 mM (inactive). Consider `O=c1c(O)cccc2cc(O)c(O)c(O)c12`, for which the Kd was > 4 mM (inactive). With `O=C(CN1C(=O)CCC1=O)c1ccccc1` the figure was > 4 mM (inactive); with `O=S(=O)(N1CCCCC1)n1nnc2ccccc21`, > 4 mM (inactive). For `NC(=O)c1oc2ccccc2c1N`, the Kd is > 4 mM (inactive).

On to `O=C(O)c1cc2ccccc2s1`, for which the Kd was > 4 mM (inactive). For the compound `O=C1C2C3C=CC(C3)C2C(=O)N1c1cccnc1` (stereo unspecified), the Kd was > 4 mM (inactive). With `Cc1ccc(C(=O)N2CCOCC2)cc1Cl` the figure was > 4 mM (inactive); with `COc1cccc(S(=O)(=O)Nc2cccnc2)c1`, > 4 mM (inactive); with `CSc1nnnn1-c1cccc(O)c1`, > 4 mM (inactive). Consider `Cc1c(C(=O)NC2=NCCS2)oc2ccccc12`, for which the Kd is > 4 mM (inactive). Take `CNC(=S)N1CCN(C(=O)c2ccco2)CC1`: the Kd is > 4 mM (inactive).

On to `CS(=O)(=O)N1CCN(C(=O)c2ccccc2)CC1`, for which the Kd is > 4 mM (inactive). For `Cc1occc1C(=O)NCc1ccncc1`, the Kd was > 4 mM (inactive). Under `COc1cccc(NC(=O)c2ocnc2C)c1` stands > 4 mM (inactive). Regarding `Cc1cc(C)n2c(SCc3cccs3)nnc2n1`, the Kd was > 4 mM (inactive). Under `Cc1cccc(CSc2nncc(=O)[nH]2)c1` stands > 4 mM (inactive); under `CCC(CO)NC(=O)c1snnc1C` (stereo unspecified), > 4 mM (inactive); under `COC(=O)CCSCC(=O)Nc1nccs1`, > 4 mM (inactive). With `O=S1(=O)CCC(N2CCCCC2)C1` (stereo unspecified) the figure was > 4 mM (inactive); with `NC(=O)C1CCN(C(=O)CN2CCc3ccccc32)CC1`, > 4 mM (inactive); with `C=CCCCCCCCCCCCC(O)CC(O)CO` (stereo unspecified) (tested in a mixture with another compound), > 4 mM (inactive). With `Cc1ccc(SCc2cc(=O)n3[nH]cnc3n2)cc1` the figure was > 4 mM (inactive); with `COc1cc(C(=S)N2CCCC2)cc(Cl)c1O`, > 4 mM (inactive). Turning to `CCOC(=O)c1cnc2n(c1=O)CCS2`, the Kd is > 4 mM (inactive).

In the case of `O=C(NC(O)C(=O)c1ccccc1)c1ccco1` (stereo unspecified), the Kd was > 4 mM (inactive).

For `CCn1cnc2cc([N+](=O)[O-])ccc2c1=O`, the Kd was > 4 mM (inactive). As to `O=C(c1cc2ccccc2o1)c1nc2c(n1O)CCCCC2`, the Kd is > 4 mM (inactive).

As for `CCP(=O)(CC)c1cccc(C)c1`, the Kd was > 4 mM (inactive). With `O=S1(=O)NC(=NCc2ccco2)c2ccccc21` the figure was > 4 mM (inactive). In the case of `CC(=O)CC1CCCCN1` (stereo unspecified), the Kd is > 4 mM (inactive). Turning to `Cc1ccc(C(O)c2nccn2C)o1` (stereo unspecified), the Kd was > 4 mM (inactive). Regarding `COC(=O)Nc1nc2c(C)cccc2s1`, the Kd is > 4 mM (inactive). Take `CN=C(C)c1c(O)n(C)c(=S)n(C)c1=O`: the Kd was > 4 mM (inactive). Take `Cc1cc2cc(N)ccc2[nH]1`: the Kd is > 4 mM (inactive).

With `Oc1cc2c(cc1O)C1c3ccc(O)c(O)c3OCC1(O)C2` (stereo unspecified), the Kd is > 4 mM (inactive). `COC(=O)c1cccc(C(F)(F)F)c1`: the Kd was > 4 mM (inactive). As to `Cc1cc(N)ccc1NC(=O)c1ccco1`, the Kd was > 4 mM (inactive). As to `CCCc1cc(=O)[nH]c2nnc(SCC(C)=O)n12`, the Kd was > 4 mM (inactive).

With `O=C(c1ccc(Cl)c(F)c1F)N1CCCC1`, the Kd was > 4 mM (inactive).

As for `Cc1nnsc1C(=O)Nc1cccc(S(N)(=O)=O)c1`, the Kd is > 4 mM (inactive).

Regarding `CC1(C)CC(NC(=O)/C=C/C(=O)O)CC(C)(C)N1`, the Kd was > 4 mM (inactive). With `O=C(O)CSc1cccc2cccnc12` the figure was > 4 mM (inactive); with `COC(=O)c1ccccc1C`, > 4 mM (inactive); with `O=C1C2CCCCC2C(=O)N1c1ccc(O)cc1` (stereo unspecified), > 4 mM (inactive). Regarding `N#Cc1nc(-c2cccs2)oc1N1CCOCC1`, the Kd was > 4 mM (inactive).

On to `O=C1NC(=O)C(C2SC(=O)NC2=O)S1` (stereo unspecified), for which the Kd was > 4 mM (inactive). In the case of `O=C(NC1CCS(=O)(=O)C1)c1cccs1` (stereo unspecified), the Kd was > 4 mM (inactive).

`COc1cnn(-c2ccccc2)c(=O)c1N(C)C`: the Kd was > 4 mM (inactive). Take `CC(CCC(=O)O)[C@H]1CCC2C3CC[C@@H]4C[C@H](O)CC[C@]4(C)C3CC[C@@]21C` (stereo partly specified): the Kd is > 4 mM (inactive).

As to `Cc1nn(C)c(Cl)c1S(=O)(=O)N1CCOCC1`, the Kd is > 4 mM (inactive).

Turning to `N/N=C1\CCCc2c1no[n+]2[O-]`, the Kd is > 4 mM (inactive). Consider `CC12CNCC(C)(CNC1)C2O` (stereo unspecified), for which the Kd was > 4 mM (inactive).
